Data: patent US10669258B2, “3-sulfonyl-5-aminopyridine-2,4-diol APJ agonists” (BRISTOL-MYERS SQUIBB COMPANY, priority 2016, dated 2020)
Where two headings read alike, the source gives them in different places.

Target: T1, human APJ receptor (Homo sapiens, UniProt P35414)
T1 construct: expressed in transfected cells; host or cells: HEK293
T1 sequence (P35414 1-380): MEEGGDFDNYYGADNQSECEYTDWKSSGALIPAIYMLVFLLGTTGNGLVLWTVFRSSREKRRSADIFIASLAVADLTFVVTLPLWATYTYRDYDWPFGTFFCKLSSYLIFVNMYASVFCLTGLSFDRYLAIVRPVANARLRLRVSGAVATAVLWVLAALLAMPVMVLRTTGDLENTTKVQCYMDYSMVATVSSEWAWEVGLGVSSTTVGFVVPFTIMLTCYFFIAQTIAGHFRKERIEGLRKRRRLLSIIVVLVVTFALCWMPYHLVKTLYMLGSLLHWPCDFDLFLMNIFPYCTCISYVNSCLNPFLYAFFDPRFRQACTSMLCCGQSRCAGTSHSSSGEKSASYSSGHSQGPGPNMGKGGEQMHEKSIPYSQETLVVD
Assay: Intracellular cAMP accumulation assay (APJ hcAMP, HTRF)
Type: cell-based
Conditions: HEK293 cells stably expressing human APJ receptor, inhibition of forskolin-mediated cAMP production
In short: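 HEK293 cells stably expressing the receptor (5,000/well) treated with compound plus […] and 2 μM forskolin for 30 min at room temperature; cAMP by HTRF against a cAMP standard curve. EC50 from variable-slope sigmoidal fit; Ymax as % of (Pyr1)apelin-13 inhibition.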

[1] = Table 1, read-out: hAPJ cAMP EC50 Potency range
[2] = hAPJ cAMP EC50 Potency range, Table 1

SMILES | EC50 [1] | further results
CCCCc1nc(O)c(S(=O)(=O)c2ccc(-n3cc(C)ccc3=O)cc2)c(O)c1N(C)c1cccc(C)c1 [Example 099, 1-(4-((6-butyl-2,4-dihydroxy-5-(methyl(m-tolyl)amino)pyridin-3-yl)sulfonyl)phenyl)-5-methylpyridin-2(1H)-one] | 10 to 100 nM | –
CCCCc1nc(O)c(S(=O)(=O)c2ccc(-c3ccc(F)nc3C)cc2)c(O)c1N1c2ccccc2CCC1C (stereo not shown) [Example 048, 6-butyl-3-((4-(6-fluoro-2-methylpyridin-3-yl)phenyl)sulfonyl)-5-(2-methyl-3,4-dihydroquinolin-1(2H)-yl)pyridine-2,4-diol] | 0.01 to 10 nM | –
CCCCc1nc(O)c(C(=O)N2CCC(c3ncc(F)cc3F)C2)c(O)c1N(CC)c1ccccc1 (stereo not shown) [Example 071, (6-butyl-5-(ethyl(phenyl)amino)-2,4-dihydroxypyridin-3-yl)(3-(3,5-difluoropyridin-2-yl)pyrrolidin-1-yl)methanone] | – | EC50 [2]: 0.01 to 10 nM
CCCCc1nc(O)c(C(=O)N2CC[C@H](c3ccccc3)C2)c(O)c1N(CCC)c1ccccc1 [Example 069, (R)-(6-butyl-2,4-dihydroxy-5-(phenyl(propyl)amino)pyridin-3-yl)(3-phenylpyrrolidin-1-yl)methanone] | 10 to 100 nM | –
CCCCc1nc(O)c(S(=O)(=O)c2ccc(-c3ccnc(F)c3C)cc2)c(O)c1N(C)c1cccc(C#N)c1 [AB-005, 3-((2-butyl-5-((4-(2-fluoro-3-methylpyridin-4-yl)phenyl)sulfonyl)-4,6-dihydroxypyridin-3-yl)(methyl)amino)benzonitrile] | – | EC50 (read-out: Human APJ cAMP Potency range): 0.01 to 10 nM
CCCCc1nc(O)c(S(=O)(=O)c2ccc(-c3ccnc(F)c3C)cc2)c(O)c1N1c2ccccc2CCC1C (stereo not shown) [167-I, 6-butyl-3-((4-(2-fluoro-3-methylpyridin-4-yl)phenyl)sulfonyl)-5-(2-methyl-3,4-dihydroquinolin-1(2H)-yl)pyridine-2,4-diol] | 0.01 to 10 nM | –
CCCCc1nc(O)c(C(=O)N2CC[C@@H](c3ccccc3)C2)c(O)c1N1CCCc2ccccc21 [Example 019, (S)-(6-butyl-5-(3,4-dihydroquinolin-1(2H)-yl)-2,4-dihydroxypyridin-3-yl)(3-phenylpyrrolidin-1-yl)methanone] | – | EC50 [2]: 10 to 100 nM
CCCCc1nc(O)c(S(=O)(=O)c2ccc(-c3ccc(F)nc3C)cc2)c(O)c1N(C)c1ccc(OC)cc1 [Example 032, 6-butyl-3-((4-(6-fluoro-2-methylpyridin-3-yl)phenyl)sulfonyl)-5-((4-methoxyphenyl)(methyl)amino)pyridine-2,4-diol] | 10 to 100 nM | –
CCCCc1nc(O)c(C(=O)N2CC[C@@H](c3ccccc3)C2)c(O)c1N(CCC)c1ccccc1 [Example 068, (S)-(6-butyl-2,4-dihydroxy-5-(phenyl(propyl)amino)pyridin-3-yl)(3-phenylpyrrolidin-1-yl)methanone] | 10 to 100 nM | –
CCCCc1nc(O)c(S(=O)(=O)c2ccc(-c3ccncc3C)cc2)c(O)c1N1CCc2ccccc21 [Example 013, 6-butyl-5-(indolin-1-yl)-3-((4-(3-methylpyridin-4-yl)phenyl)sulfonyl)pyridine-2,4-diol] | 0.01 to 10 nM | –
CCCCc1nc(O)c(S(=O)(=O)c2ccc(-c3cccnc3C)cc2)c(O)c1N1CCCCc2ccccc21 [Example 173, 6-butyl-3-((4-(2-methylpyridin-3-yl)phenyl)sulfonyl)-5-(2,3,4,5-tetrahydro-1H-benzo[b]azepin-1-yl)pyridine-2,4-diol] | 10 to 100 nM | –
CCCCc1nc(O)c(S(=O)(=O)c2ccc(-c3ccnc(F)c3C)cc2)c(O)c1N1CCCOc2ccccc21 [Example 127, 6-butyl-5-(3,4-dihydrobenzo[b][1,4]oxazepin-5(2H)-yl)-3-((4-(2-fluoro-3-methylpyridin-4-yl)phenyl)sulfonyl)pyridine-2,4-diol] | 0.01 to 10 nM | –
CCCCc1nc(O)c(C(=O)N2CCC(c3ncc(Cl)cc3F)C2)c(O)c1N(CC)c1ccccc1 (stereo not shown) [Example 070, (6-butyl-5-(ethyl(phenyl)amino)-2,4-dihydroxypyridin-3-yl)(3-(5-chloro-3-fluoropyridin-2-yl)pyrrolidin-1-yl)methanone] | – | EC50 [2]: 0.01 to 10 nM

Further lines, with some results ahead:

EC50 [1] | SMILES | further results
0.01 to 10 nM | CCN(c1ccccc1)c1c(-c2ccn(C)n2)nc(O)c(S(=O)(=O)c2ccc(-c3ccncc3C)cc2)c1O [Example 064, 5-(ethyl(phenyl)amino)-6-(1-methyl-1H-pyrazol-3-yl)-3-((4-(3-methylpyridin-4-yl)phenyl)sulfonyl)pyridine-2,4-diol] | –
0.01 to 10 nM | CCCCc1nc(O)c(S(=O)(=O)c2ccc(-c3ccccc3C#N)cc2)c(O)c1N(CC)c1ccccc1 [Example 083, 4′-((6-butyl-5-(ethyl(phenyl)amino)-2,4-dihydroxypyridin-3-yl)sulfonyl)-[1,1′-biphenyl]-2-carbonitrile] | –
0.01 to 10 nM | CCN(c1ccccc1)c1c(-c2cnn(C)c2)nc(O)c(S(=O)(=O)c2ccc(-c3ccccc3C(=O)NC)cc2)c1O [Example 151, 4′-((5-(ethyl(phenyl)amino)-2,4-dihydroxy-6-(1-methyl-1H-pyrazol-4-yl)pyridin-3-yl)sulfonyl)-N-methyl-[1,1′-biphenyl]-2-carboxamide] | –
0.01 to 10 nM | CCN(c1ccccc1)c1c(-c2cccc(C)c2)nc(O)c(S(=O)(=O)c2ccc(-c3ccncc3C)cc2)c1O [Example 120, 5-(ethyl(phenyl)amino)-3-((4-(3-methylpyridin-4-yl)phenyl)sulfonyl)-6-(m-tolyl)pyridine-2,4-diol] | –
0.01 to 10 nM | CCCCc1nc(O)c(S(=O)(=O)c2ccc(-c3cccnc3C)cc2)c(O)c1N(C)c1ccccc1F [Example 124, 6-butyl-5-((2-fluorophenyl)(methyl)amino)-3-((4-(2-methylpyridin-3-yl)phenyl)sulfonyl)pyridine-2,4-diol] | –
0.01 to 10 nM | CCN(c1cccc(C#N)c1)c1c(-c2ccn(C)n2)nc(O)c(S(=O)(=O)c2ccc(-c3ccccc3C(=O)NC)cc2)c1O [Example 214, 4′-((5-((3-cyanophenyl)(ethyl)ami-no)-2,4-dihydroxy-6-(1-methyl-1H-pyrazol-3-yl)pyridin-3-yl)sulfonyl)-N-methyl-[1,1′-biphenyl]-2-carboxamide] | –
0.01 to 10 nM | CCCCc1nc(O)c(S(=O)(=O)c2ccc(-c3cccnc3C)cc2)c(O)c1N(C)c1ccccc1 [Example 017, 6-butyl-5-(methyl(phenyl)amino)-3-((4-(2-methylpyridin-3-yl)phenyl)sulfonyl)pyridine-2,4-diol] | –
10 to 100 nM | CCCCc1nc(O)c(S(=O)(=O)c2ccc(-c3ccccc3C(=O)NC)cc2)c(O)c1N1CCCCc2ccccc21 [Example 184, 4′-((6-butyl-2,4-dihydroxy-5-(2,3,4,5-tetrahydro-1H-benzo[b]azepin-1-yl)pyridin-3-yl)sulfonyl)-N-methyl-[1,1′-biphenyl]-2-carboxamide] | –
0.01 to 10 nM | CCCCc1nc(O)c(S(=O)(=O)c2ccc(-c3ccnc(F)c3C)cc2)c(O)c1N(C)c1ccccc1F [Example 125, 6-butyl-3-((4-(2-fluoro-3-methylpyridin-4-yl)phenyl)sulfonyl)-5-((2-fluorophenyl)(methyl)amino)pyridine-2,4-diol] | –
0.01 to 10 nM | CCCCc1nc(O)c(S(=O)(=O)c2ccc(-c3ccccc3C(=O)NC)cc2)c(O)c1N(CC)c1cc(C)cc(C)c1 [Example 182, 4′-((6-butyl-5-((3,5-dimethyphenyl)(ethyl)a-mino)-2,4-dihydroxypyridin-3-yl)sulfonyl)-N-methyl-[1,1′-biphenyl]-2-carboxamide] | –
0.01 to 10 nM | CCN(c1ccccc1)c1c(-c2ccn(C)n2)nc(O)c(S(=O)(=O)c2ccc(-c3cccnc3C)cc2)c1O [Example 058, 5-(ethyl(phenyl)amino)-6-(1-methyl-1H-pyrazol-3-yl)-3-((4-(2-methylpyridin-3-yl)phenyl)sulfonyl)pyridine-2,4-diol] | –
0.01 to 10 nM | CC(C)N(c1ccccc1)c1c(-c2ccn(C)n2)nc(O)c(S(=O)(=O)c2ccc(-c3ccccc3C(=O)N(C)C)cc2)c1O [Example 159, 4′-((2,4-dihydroxy-5-(isopropyl(phen-yl)amino)-6-(1-methyl-1H-pyrazol-3-yl)pyridin-3-yl)sulfonyl)-N,N-dimethyl-[1,1′-biphenyl]-2-carboxamide] | –
0.01 to 10 nM | CCCCc1nc(O)c(S(=O)(=O)c2ccc(-c3ccc(F)nc3C)cc2)c(O)c1N(C)c1ccccc1F [Example 118, 6-butyl-3-((4-(6-fluoro-2-methylpyridin-3-yl)phenyl)sulfonyl)-5-((2-fluorophenyl)(methyl)amino)pyridine-2,4-diol] | –
0.01 to 10 nM | CCN(c1ccccc1)c1c(-c2ccn(C)n2)nc(O)c(S(=O)(=O)c2ccc(-c3ccc(F)nc3C)cc2)c1O [Example 059, 5-(ethyl(phenyl)amino)-3-((4-(6-fluoro-2-methylpyridin-3-yl)phenyl)sulfonyl)-6-(1-methyl-1H-pyrazol-3-yl)pyridine-2,4-diol] | –
0.01 to 10 nM | CCCCc1nc(O)c(S(=O)(=O)c2ccc(-c3cccnc3C)cc2)c(O)c1N(CC)c1cccc(C#N)c1 [Example 175, 3-((2-butyl-4,6-dihydroxy-5-((4-(2-methylpyridin-3-yl)phenyl)sulfonyl)pyri-dine-3-yl)(ethyl)amino)benzonitrile] | –
